Test results reported in patent publication US10434111B2, “Compositions and methods for modification of biomolecules” (THE REGENTS OF THE UNIVERSITY OF CALIFORNIA, priority 2004, dated 2019).

Assays:
Jurkat cells [1] = test system: Jurkat cells
[2] = Kinetic evaluation of [3+2] cycloaddition of cyclooctyne probes with 2-azidoethanol (1H NMR); format: physicochemical; settings: HOCH2CH2N3, CD3CN/PBS (55:45), 22° C.
Experimental: (§1) Stock solutions of cyclooctynes 3a and 3b (50 mM), benzyl azide (500 mM) and 2-azidoethanol (500 mM) were made in either CD3CN or a 55:45 mixture of CD3CN and deuterated Dulbecco's phosphate-buffered saline (pH 7.4, made with D2O). Gentle heating and/or sonication in a H2O bath was required to fully dissolve 3a and 3b. An NMR tube was charged with 450 μL of either 3a or 3b, and 50 μL of either benzyl azide or 2-azidoethanol, and the reaction was monitored over time using ^1H NMR spectroscopy.
(§2) In the case of the reactions of 3a and 3b with benzyl azide, the kinetic data were derived by monitoring the change in integration of resonances corresponding to the benzylic protons in benzyl azide (δ˜4.2 ppm) compared to the corresponding resonances of the triazole products (δ ˜5.0 to 5.5 ppm). […]
(§3) Second-order rate constants for the reaction were determined by plotting 1/[benzyl azide] versus time in the case of the reactions of 3a and 3b with benzyl azide and by plotting 1/[3a] versus time or 1/[3b] versus time in the case of the reactions of 3a and 3b with 2-azidoethanol, and subsequent analysis by linear regression. Second-order rate constants correspond to one half of the determined slope (Table 1). […]

[3] = Kinetic evaluation of [3+2] cycloaddition of cyclooctyne probes with benzyl azide (1H NMR); format: physicochemical; settings: PhCH2N3, CD3CN, 22° C.
Experimental: as §1, §2, §3

Jurkat cells [4] = assay: Cell surface azide labeling and detection, Jurkat cells, FITC-avidin flow cytometry; format: cell-based, human
Experimental: Jurkat cells were seeded at a density of 1.5-2.0×10^5 cells/mL and incubated for 3 d in untreated media or media containing various concentrations of Ac4ManNAz. […] Cells were then incubated with 5 or a biotinylated phosphine probe (Vocadlo et al. (2003) Proc. Natl. Acad. Sci. U.S.A. 100:9116-21) in labeling buffer containing 2.8% DMF or labeling buffer plus 2.8% DMF alone. […] Following a 10-min incubation on ice (in the dark), cells were washed with 200 μL of cold labeling buffer and the FITC-avidin staining procedure was repeated.
FIGS. 3A and 3B. Cell surface labeling with compound 5. Jurkat cells were incubated in the presence (+Az) or absence (−Az) of 25 μM Ac4ManNAz for 3 d. FIG. 3A. The cells were reacted with various concentrations of 5 for 1 h at rt and treated with FITC-avidin; mean fluorescence intensity (MFI) was determined by flow cytometry. FIG. 3B. The cells were incubated with 250 μM 5 for various durations at rt and analyzed as in A. C. The cells were incubated with 100 μM probe for 1 h at rt and analyzed as in A. Error bars represent the standard deviation from three replicates. AU=arbitrary fluorescence units.

azide-labeled GlyCAM-Ig = target: T1, azide-labeled GlyCAM-Ig (Mus musculus, UniProt Q02596); assay: Western blot analysis of azide-labeled GlyCAM-Ig; format: biochemical; settings: for labeling (biotinylation) of GlyCAM-Ig modified with SiaNAz: 250 μM probe alone, overnight at rt, no copper catalysis
T1 construct: made in house; host or cells: CHO cells grown with Ac4ManNAz
T1 sequence (Q02596 20-151): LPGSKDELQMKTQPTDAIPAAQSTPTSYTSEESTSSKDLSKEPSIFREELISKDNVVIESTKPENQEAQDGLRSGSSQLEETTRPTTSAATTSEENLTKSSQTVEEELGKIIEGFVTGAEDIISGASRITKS
Experimental: For Western blot analysis of azide-labeled and unlabeled GlyCAM-Ig, samples were incubated with 5 (250 μM final concentration in PBS, pH 7.4 containing 0.7% DMF), 6 (250 μM final concentration in PBS, pH 7.4 containing either 0.7% DMF) or left untreated for 12 h. To verify that 6 could react with azide-labeled GlyCAM-Ig via copper-mediated [3+2] cycloaddition, a modified version of the method reported by Speers and Cravatt was employed. Speers and Cravatt (2004) Chem. Biol. 11:535-46. Briefly, GlyCAM-Ig samples (in PBS, pH 7.4 containing 0.7% DMF) were incubated with 250 μM 6, 2.5 mM TCEP, 250 μM tris-triazolyl ligand (from a 1.7 mM stock in 1:4 DMSO:tert-butanol), and 2.5 mM CuSO4. Samples were vortexed and allowed to react at rt for 12 h. Prior to electrophoresis, samples were incubated with an equal volume of 100 mM 2-azidoethanol in 2×SDS-PAGE loading buffer for 8 h at rt (to quench unreacted 5 or 6). The quenched samples were boiled for 3 min and loaded onto precast polyacrylamide gels. After electrophoresis, the samples were electroblotted to nitrocellulose membrane. The membrane was blocked using 5% BSA in PBS (pH 7.4, containing 0.05% Tween 20 (blocking buffer A) for 1 h at rt, then incubated with a solution of blocking buffer A containing HRP-α-biotin (1:250,000 dilution, 1 h at rt). The membrane was washed, and detection of membrane-bound anti-biotin-HRP was accomplished by chemiluminescence. Following detection, the membrane was rinsed with PBS (pH 7.4) containing 0.05% Tween (PBS-T) and placed in stripping buffer (15 min at RT) to remove bound anti-biotin Ig. The membrane was thoroughly rinsed with PBS-T and probed for residual anti-biotin signal by chemiluminescence.
The membrane was washed and re-blocked with 5% low-fat dry powdered milk (blocking buffer B) for 1 h at rt. The membrane was then incubated with HRP-α-Ig (1:5000 in blocking buffer B) for 1 h at rt. The membrane was washed again with PBS-T, and detection of membrane bound anti-human Ig was accomplished as for peroxidase-conjugated anti-biotin. Control samples were treated in an identical manner, except that specific reagents were replaced by buffer where appropriate.
FIG. 2. Labeling of azide-modified GlyCAM-Ig with alkyne probes. Purified GlyCAM-Ig was treated with buffer (−), 250 μM 5, or 250 μM 6 alone or in the presence (cat) of CuSO4, TCEP, and a triazolyl ligand, overnight at rt. Reaction mixtures were quenched with 2-azidoethanol and analyzed by Western blot probing with HRP-α-biotin (upper panel). The blot was then stripped and reprobed with HRP-α-Ig (lower panel).

[5] = Stability of cyclooctyne 3 to acid, base and biological nucleophiles; format: physicochemical
Experimental: [drawing 31] by Reese and Shaw. Reese and Shaw (1970) Chem. Comm. 1172-1173. Briefly, compound 1 (Skattebol and Solomon, supra) was treated with silver perchlorate to effect electrocyclic ring opening to the trans-allylic cation, which was captured with methyl hydroxymethylbenzoate to afford bromo-trans-cyclooctene 2. Base-mediated elimination of the vinyl bromide followed by saponification yielded versatile intermediate 3, to which any biological probe can be attached. Finally, compound 3 was coupled to biotin analog 4 (Wilbur et al. (1996) Bioconj. Chem. 7:689-702) bearing a PEG linker, providing target 5. Cyclooctyne 3 was stable to mild acid (0.5 N HCl for 30 min), base (0.8 M NaOMe for 30 min), and prolonged exposure to biological nucleophiles such as thiols (120 mM 2-mercaptoethanol for 12 h).

## O=C(CCCC[C@@H]1SC[C@@H]2NC(=O)N[C@@H]21)NCCCOCCOCCOCCCNC(=O)COC1CCC#CC(F)(F)CC1 (stereo partly drawn) [DIFO-biotin]
Jurkat cells [1]; 0 or 25 μM Ac4ManNAz 3 days, probe 1 h, FITC-avidin
  labeling of azide-containing membrane-associated glycans in live cells: selectively label
Jurkat cells [1]; 100 μM probes, 1 h
  sensitivity of azide detection compared to a nonfluorinated cyclooctyne or a phosphine capable of Staudinger ligation: much higher

## O=C(O)c1ccc(CC2C#CCCCCC2)cc1 (stereo not drawn) [Compound 3a, 4-Cyclooct-2-ynylmethylbenzoic acid]
[2]
  k, second-order rate constant for the [3 + 2] cycloaddition: 0.0011 M⁻¹ s⁻¹
[3]
  k, second-order rate constant for the [3 + 2] cycloaddition: 0.0012 M⁻¹ s⁻¹

## O=C(CCCC[C@@H]1SC[C@@H]2NC(=O)N[C@@H]21)NCCCOCCOCCOCCCNC(=O)c1ccc(COC2C#CCCCCC2)cc1 (stereo partly drawn) [Compound 5]
Jurkat cells [4]; Jurkat +Az, 250 μM probe for various durations at rt
  dependence of cell surface reaction on incubation time: dependent on duration of incubation
Jurkat cells [4]; Jurkat cells treated with probe
  effects on cell viability: No negative effects
Jurkat cells [4]; Jurkat grown without Ac4ManNAz
  labeling of cells lacking azides: No detectable labeling
Jurkat cells [4]; Jurkat, 25 μM Ac4ManNAz 3 d, various concentrations of probe, rt, FITC-avidin
  fluorescence of cells displaying azides upon treatment with the cyclooctyne probe: dose-dependent increase in fluorescence
azide-labeled GlyCAM-Ig; HRP-α-biotin blot
  labeling (biotinylation) of GlyCAM-Ig modified with SiaNAz: Robust biotinylation
azide-labeled GlyCAM-Ig; 250 μM probe overnight, HRP-α-biotin blot
  labeling of native GlyCAM-Ig lacking azides: no background labeling

## O=C(O)c1ccc(COC2C#CCCCCC2)cc1 (stereo not drawn) [Compound 3]
[5]; 120 mM 2-mercaptoethanol for 12 h
  stability to biological nucleophiles such as thiols: stable
[5]; 0.5 N HCl for 30 min
  stability to mild acid: stable
[5]; 0.8 M NaOMe for 30 min
  stability to base: stable

## C#CCCC(=O)NCCCOCCOCCOCCCNC(=O)CCCC[C@@H]1SC[C@@H]2NC(=O)N[C@@H]21 [Compound 6]
azide-labeled GlyCAM-Ig; HRP-α-biotin blot
  labeling (biotinylation) of GlyCAM-Ig modified with SiaNAz: no glycoprotein labeling
azide-labeled GlyCAM-Ig; 250 μM probe plus CuSO4, TCEP and a triazolyl ligand
  labeling of the azide-modified glycoprotein with copper catalysis: facile labeling
azide-labeled GlyCAM-Ig; in the presence of copper, blot reprobed with HRP-α-IgG
  anti-IgG immunoreactivity of labeled azide-modified GlyCAM-Ig: consistently diminished

## O=C(O)c1ccc(CC2(F)C#CCCCCC2)cc1 (stereo not drawn) [Compound 3b, 4-(1-Fluoro-cyclooct-2-ynylmethyl)benzoic acid]
[2]
  k, second-order rate constant for the [3 + 2] cycloaddition: 0.004 M⁻¹ s⁻¹
[3]
  k, second-order rate constant for the [3 + 2] cycloaddition: 0.0042 M⁻¹ s⁻¹
